Legend:
Lepeophtheirus salmonis = assay: Duration of efficacy: medicated feed, then sea lice infestation of Atlantic salmon at 8 or 17 DPT (Example 2); type: in vivo; conditions: for percent efficacy for total sea lice, across counts: cohort infested at 8 DPT
Procedure: A randomized, blinded, parallel-group, negative-controlled study was conducted in which, the active ingredient was administered to Atlantic salmon at three dose rate (0 mg/kg/day, 0.025 mg/kg/day, and 0.060 mg/kg/day administered in medicated feed for 7 consecutive days. Following the treatment, the fish were intentionally infested with sea lice either 8 or 17 DPT, all within a controlled laboratory environment with seawater. The evaluation of efficacy for each cohort occurred at three specific timepoints post-infestation by comparing lice counts between the groups that received treatment and the untreated control groups.
Healthy Atlantic salmon post-smolts (n=1080) were selected for enrollment and distributed sequentially across eighteen (18) study tanks. Fish were weighed individually during the allocation of fish to tanks on study day (SD) −55&−56. Fish were weighed again on SD −19 to estimate the average weight of all fish and used to determine the feeding amount during the treatment period (SD 0−+6). The mean weight of fish prior to treatment was 716.1±152.5 g. Fish in the cohort infested 8 DPT were additionally weighed on SD +8, +14, +27, +35, +41 and +48. Fish in the cohort infested 17 DPT were additionally weighed on SD +8, +23, +36, +44, +50, and +57. For both cohorts SD 0 served as the first day of treatment.
Atlantic salmon post-smolts at each infestation time (8 or 17 DPT) were infested once with about 100 copepodids (Lepeophtheirus salmonis) per fish. During the study the water temperature varied between 9 and 13° C., and the water oxygen saturation was above 80%.
Three treatment groups were randomly assigned to eighteen study tanks by blocking the paired tank rows for the 8 and 17 DPT exposure. Study personnel were blinded as to the identity of the treatments for each tank.
Sea lice were counted three times during the study. […] The counts were strategically scheduled to ensure the presence of life stages, including chalimus, pre-adult, and adult stages, in at least one of the three counts within the negative control treatment. At all timepoints 10 fish were euthanized and lice counted.
Medicated feed was prepared by dry coating commercially available fish feed pellets with a premix containing the active ingredient to reach a content of about 4.2 and 10.0 mg/kg. The fish pellets were then coated with feed grade herring fish oil at an inclusion rate of about 0.75% w/w (7.5 g/kg feed) The consumption rate of the medicated feed was set to 0.6% body weight.
For the cohort infested at 8 DPT and the cohort infested at 17 DPT, treatment efficacy was computed for total number of sea lice/fish and total number of mobile life stages, i.e., preadult & adult sea lice/fish for each sea lice counting occasion (Count I, II & III). For the total number of attached/fish, treatment efficacy was computed at Count I only. Percent efficacy was computed using Abbott's formula for each treatment group compared to control as follows: percent efficacy=100*(MC−MT)/MC, where MC and MT are the arithmetic means of sea lice counts in the untreated control and S-roxapin-treated groups, respectively.
Treatments were considered efficacious when the percent efficacy was ≥90% for treated groups compared to untreated control groups. The mean sea lice abundance was reported for different parasite life stages (attached, mobile, and total (attached and mobile together)) and computed as the number of lice on salmon divided by the number of sampled fish per tank. The attached category included chalimus I & II stages. The mobile category included pre-adult and adult life stages of both males and females. The numbers of mobile, attached, and total lice were considered in this study.

sea lice = assay: First set of experiments: medicated feed over 7 consecutive days to salmon, sea lice infestation; type: in vivo; conditions: all dose rates 0.050, 0.125, 0.250 mg/kg/d in medicated feed over 7 consecutive days to salmon
Procedure: The inventors conducted a first set of experiments with administration in medicated feed over 7 consecutive days to salmon of 0.050, 0.125, 0.250 mg/kg/d to determine a non-therapeutic dosage for control or treatment of sea lice infestation. As these lower dosages represented a large reduction in concentration to that described in U.S. Pat. No. 9,920,037 (1.0 mg/kg/d) and, as well, represented concentrations well below the dosage for related IOB products for dogs, cats and poultry approved between 2014 and 2021 by such regulatory authorities as the U.S. Food and Drug Administration, Health Canada, and the European Medicines Agency, it was reasonable to expect to find a non-therapeutic dosage at the lower dosages tested.

[1] = 0.025 mg/kg/day in feed 7 d, infested 8 DPT, Count I (21DPI)
[2] = 0.025 mg/kg/day in feed 7 d, infested 8 DPT, Count III (34 DPI)
[3] = 0.025 mg/kg/day in feed 7 d, infested 17 DPT, Count I (21DPI)
[4] = 0.025 mg/kg/day in feed 7 d, infested 17 DPT, Count III (34 DPI)
[5] = 0.060 mg/kg/day in feed 7 d, infested 8 DPT, Count I (21DPI)
[6] = 0.060 mg/kg/day in feed 7 d, infested 8 DPT, Count III (34 DPI)
[7] = 0.060 mg/kg/day in feed 7 d, infested 17 DPT, Count I (21DPI)
[8] = 0.060 mg/kg/day in feed 7 d, infested 17 DPT, Count III (34 DPI)

C#CCNC(=O)CNC(=O)c1sc(C2=NO[C@@](c3cc(Cl)c(Cl)c(Cl)c3)(C(F)(F)F)C2)cc1C [S-roxapin, (S)-3-methyl-N-(2-oxo-2-(prop-2-yn-1-ylamino)ethyl)-5-(5-(3,4,5-trichlorophenyl)-5-(trifluoromethyl)-4,5-dihydroisoxazol-3-yl)thiophene-2-carboxamide]
Number of Attached Lice/Fish % Efficacy (Lepeophtheirus salmonis; [1]): 92.5%
Number of Attached Lice/Fish Mean ± SD (Lepeophtheirus salmonis; [1]): 1.6 ± 2.0 lice/fish
Number of Mobile Lice/Fish % Efficacy (Lepeophtheirus salmonis; [1]): 87.2%
Number of Mobile Lice/Fish Mean ± SD (Lepeophtheirus salmonis; [1]): 1.0 ± 1.3 lice/fish
Total Number of Lice/Fish % Efficacy (Lepeophtheirus salmonis; [1]): 91.1%
Total Number of Lice/Fish Mean ± SD (Lepeophtheirus salmonis; [1]): 2.6 ± 2.9 lice/fish
Number of Attached Lice/Fish Mean ± SD (Lepeophtheirus salmonis; [2]): 0.0 ± 0.0 lice/fish
Number of Mobile Lice/Fish % Efficacy (Lepeophtheirus salmonis; [2]): 91.8%
Number of Mobile Lice/Fish Mean ± SD (Lepeophtheirus salmonis; [2]): 2.5 ± 2.8 lice/fish
Total Number of Lice/Fish % Efficacy (Lepeophtheirus salmonis; [2]): 91.8%
Total Number of Lice/Fish Mean ± SD (Lepeophtheirus salmonis; [2]): 2.5 ± 2.8 lice/fish
Number of Attached Lice/Fish % Efficacy (Lepeophtheirus salmonis; [3]): 21.2%
Number of Attached Lice/Fish Mean ± SD (Lepeophtheirus salmonis; [3]): 2.7 ± 1.9 lice/fish
Number of Mobile Lice/Fish % Efficacy (Lepeophtheirus salmonis; [3]): −10.1%
Number of Mobile Lice/Fish Mean ± SD (Lepeophtheirus salmonis; [3]): 24.4 ± 8.8 lice/fish
Total Number of Lice/Fish % Efficacy (Lepeophtheirus salmonis; [3]): −5.9%
Total Number of Lice/Fish Mean ± SD (Lepeophtheirus salmonis; [3]): 27.1 ± 9.0 lice/fish
Number of Attached Lice/Fish Mean ± SD (Lepeophtheirus salmonis; [4]): 0.0 ± 0.0 lice/fish
Number of Mobile Lice/Fish % Efficacy (Lepeophtheirus salmonis; [4]): −16.2%
Number of Mobile Lice/Fish Mean ± SD (Lepeophtheirus salmonis; [4]): 32.1 ± 12.1 lice/fish
Total Number of Lice/Fish % Efficacy (Lepeophtheirus salmonis; [4]): −16.0%
Total Number of Lice/Fish Mean ± SD (Lepeophtheirus salmonis; [4]): 32.1 ± 12.1 lice/fish
percent efficacy for total sea lice, across counts (Lepeophtheirus salmonis; 0.025 mg/kg/day): above 86.8%
efficacy for mobile lice (Lepeophtheirus salmonis; 0.025 mg/kg/day, cohort infested at 17 DPT): no efficacy
efficacy for total sea lice (Lepeophtheirus salmonis; 0.025 mg/kg/day, cohort infested at 17 DPT (printed: in DOE14)): No efficacy
Number of Attached Lice/Fish % Efficacy (Lepeophtheirus salmonis; [5]): 99.8%
Number of Attached Lice/Fish Mean ± SD (Lepeophtheirus salmonis; [5]): 0.0 ± 0.2 lice/fish
Number of Mobile Lice/Fish % Efficacy (Lepeophtheirus salmonis; [5]): 99.6%
Number of Mobile Lice/Fish Mean ± SD (Lepeophtheirus salmonis; [5]): 0.0 ± 0.2 lice/fish
Total Number of Lice/Fish % Efficacy (Lepeophtheirus salmonis; [5]): 99.8%
Total Number of Lice/Fish Mean ± SD (Lepeophtheirus salmonis; [5]): 0.1 ± 0.3 lice/fish
Number of Attached Lice/Fish Mean ± SD (Lepeophtheirus salmonis; [6]): 0.0 ± 0.0 lice/fish
Number of Mobile Lice/Fish % Efficacy (Lepeophtheirus salmonis; [6]): 100%
Number of Mobile Lice/Fish Mean ± SD (Lepeophtheirus salmonis; [6]): 0.0 ± 0.0 lice/fish
Total Number of Lice/Fish % Efficacy (Lepeophtheirus salmonis; [6]): 100%
Total Number of Lice/Fish Mean ± SD (Lepeophtheirus salmonis; [6]): 0.0 ± 0.0 lice/fish
Number of Attached Lice/Fish % Efficacy (Lepeophtheirus salmonis; [7]): 46.2%
Number of Attached Lice/Fish Mean ± SD (Lepeophtheirus salmonis; [7]): 1.9 ± 1.6 lice/fish
Number of Mobile Lice/Fish % Efficacy (Lepeophtheirus salmonis; [7]): 18.5%
Number of Mobile Lice/Fish Mean ± SD (Lepeophtheirus salmonis; [7]): 18.0 ± 6.1 lice/fish
Total Number of Lice/Fish % Efficacy (Lepeophtheirus salmonis; [7]): 22.3%
Total Number of Lice/Fish Mean ± SD (Lepeophtheirus salmonis; [7]): 19.9 ± 6.1 lice/fish
Number of Attached Lice/Fish Mean ± SD (Lepeophtheirus salmonis; [8]): 0.0 ± 0.0 lice/fish
Number of Mobile Lice/Fish % Efficacy (Lepeophtheirus salmonis; [8]): 23.0%
Number of Mobile Lice/Fish Mean ± SD (Lepeophtheirus salmonis; [8]): 21.3 ± 9.0 lice/fish
Total Number of Lice/Fish % Efficacy (Lepeophtheirus salmonis; [8]): 23.1%
Total Number of Lice/Fish Mean ± SD (Lepeophtheirus salmonis; [8]): 21.3 ± 9.0 lice/fish
percent efficacy for total sea lice, across counts (Lepeophtheirus salmonis; 0.060 mg/kg/day): above 99.2%
effectiveness in reducing sea lice burdens (sea lice): ~100%

— patent US12280040B2, “Compositions and methods of a dihydroisoxazole compound that reduces ectoparasite infestations on fish” (EVAH Atlantic Inc., priority 2023, dated 2025)
